Drawing on patent US8889668B2, “Oxadiazole diaryl compounds” (Merck Serono SA, priority 2007, dated 2014), this text covers EC50 and Ki for 24 compounds.

The target of assay [1] is T1, S1P1 (Homo sapiens (Human), UniProt P21453). Briefly: 35S-GTPγS binding, membranes from CHO cells expressing S1P1. The class given is biochemical. The conditions noted are these: 60 min 30° C., read-out: S1P1 GTPgS EC50. In general terms: Binding of GTPγS marks nucleotide exchange on a G protein.
Assay [2] concerns the target T1, S1P1. Briefly: Receptor binding assay, [33P]sphingosine 1-phosphate, membranes from CHO cells expressing S1P1. As to conditions: [33P]S1P 25 pM, SPA. The protocol:
(§1) Receptor binding assay: Membranes were prepared from CHO cells expressing S1P1 or S1P3 for use in ligand and […] binding studies. Cells were suspended in 50 mM TRIS, pH 7.4, 2 mM EDTA, 250 mM Sucrose (buffer A) and 1× Complete protease inhibitor cocktail (Roche), and disrupted at 4° C. by nitrogen decompression using a cell disruption bomb (Parr Instrument). Following centrifugation at 1000 RPM for 10 min at 4° C., the supernatant was suspended in buffer A and centrifuged again at 19000 RPM for 60 min at 4° C. The pellet was then suspended in 10 mM HEPES, pH 7.4, 1 mM EDTA, 250 mM Sucrose (Buffer B), and 1× Complete EDTA-free protease inhibitor cocktail and homogenized using a potter. Membranes were flash frozen in liquid nitrogen and stored at −80° C. [33P]sphingosine 1-phosphate (3000 Ci/mmol; American Radiolabeled Chemicals, Inc.) was added to test compounds in DMSO. Membranes and WGA SPA beads (GE Healthcare) were added to give a final volume of 100 μl in 96-well plates with assay concentrations of 25 pM or 10 pM [33P]sphingosine 1-phosphate (respectively for S1P1 or S1P3), 50 mM HEPES, pH 7.5, 5 mM MgCl2, 100 mM NaCl, 0.4% fatty acid-free BSA, 1-5 μg/well of proteins and 100 μg/well of WGA SPA beads. Binding was performed for 60 min at room temperature on a shaker and bound radioactivity was measured on a PerkinElmer 1450 MicroBeta counter. Specific binding was calculated by subtracting remaining radioactivity in the presence of 1000-fold excess of unlabeled S1P. Binding data were analyzed using the GraphPad Prism program.

The target in the next assay is S1P3 (Homo sapiens (Human), UniProt Q99500). Put plainly: 35S-GTPγS binding, membranes from CHO cells expressing S1P3. In kind it is biochemical. The conditions noted are these: 60 min 30° C., read-out: S1P3 GTPgs EC50. The protocol: as §1
Measurements of ^35S-GTPγS Binding: Membranes (1 to 10 μg protein) prepared as described above, were incubated in 96-well Scintiplates (PerkinElmer) with test compounds diluted in DMSO, in 180 μl of 20 mM HEPES, pH 7.4, 10 mM MgCl2, 2 μg/well Saponin, 0.2% fatty acid free BSA (Assay buffer), 140 mM NaCl and 1.7 μM GDP. The assay was initiated with the addition of 20 μl of 1.5 nM [35S]-GTPγS (1100 Ci/mmol; GE Healthcare) in assay buffer. After 60 min incubation at 30° C. on a shaker, plates were centrifuged for 10 min at 2000 RPM. Supernatant was discarded and membrane bound radioactivity was measured on a PerkinElmer 1450 MicroBeta counter. Triplicate samples were averaged and expressed as % response relative to S1P activation in absence of compound (n=2).

T1 sequence (P21453 whole entry, species assumed): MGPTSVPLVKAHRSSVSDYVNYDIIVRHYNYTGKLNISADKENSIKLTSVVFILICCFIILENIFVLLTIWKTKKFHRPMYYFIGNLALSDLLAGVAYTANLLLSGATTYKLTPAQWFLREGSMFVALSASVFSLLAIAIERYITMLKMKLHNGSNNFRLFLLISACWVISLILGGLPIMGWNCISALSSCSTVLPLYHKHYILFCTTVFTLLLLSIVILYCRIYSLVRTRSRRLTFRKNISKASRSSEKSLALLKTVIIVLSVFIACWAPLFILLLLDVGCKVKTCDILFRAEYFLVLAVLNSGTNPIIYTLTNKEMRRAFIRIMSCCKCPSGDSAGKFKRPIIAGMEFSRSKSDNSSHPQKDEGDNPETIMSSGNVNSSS
Chain of S1P3 (Q99500 whole entry, species assumed): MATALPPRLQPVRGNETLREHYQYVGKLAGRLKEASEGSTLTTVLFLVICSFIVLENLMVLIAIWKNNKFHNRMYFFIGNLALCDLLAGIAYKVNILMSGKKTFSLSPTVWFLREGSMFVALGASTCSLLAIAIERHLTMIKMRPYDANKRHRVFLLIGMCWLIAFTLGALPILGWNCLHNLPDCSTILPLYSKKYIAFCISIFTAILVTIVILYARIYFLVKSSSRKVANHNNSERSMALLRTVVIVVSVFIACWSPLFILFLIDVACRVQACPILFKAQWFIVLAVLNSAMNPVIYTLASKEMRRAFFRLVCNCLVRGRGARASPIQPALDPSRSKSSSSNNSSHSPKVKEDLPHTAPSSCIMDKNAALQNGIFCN

For orientation: EC50 means the concentration giving half of the maximal effect. A word on the Ki: it is the equilibrium dissociation constant of an inhibitor or competing ligand from its target. The low end stands for higher affinity, the high end for lower affinity. As for `COc1ccccc1-c1noc(-c2ccc(N3CCCCC3)c([N+](=O)[O-])c2)n1` [Compound I1, 1-{4-[3-(2-methoxyphenyl)-1,2,4-oxadiazol-5-yl]-2-nitrophenyl}piperidine], the 50% effective concentration (EC50) on S1P1 [1] is 27 nM; on S1P3, > 20000 nM. At S1P1 [2], this compound registered a Ki of 11 nM.

With `COc1ccccc1-c1noc(-c2ccc(N3CCOCC3)c([N+](=O)[O-])c2)n1` [Compound I2, 4-{4-[3-(2-methoxyphenyl)-1,2,4-oxadiazol-5-yl]-2-nitrophenyl}morpholine], the EC50 at S1P1 [1] is 51 nM; on S1P3, > 30000 nM. This compound gave an inhibition constant (Ki) on S1P1 [2] of 18 nM.

In the case of `FC(F)(F)Oc1ccccc1-c1noc(-c2ccc(N3CCCCC3)cc2)n1` [Compound I3, 1-(4-{3-[2-(trifluoromethoxy)phenyl]-1,2,4-oxadiazol-5-yl}phenyl)piperidine], the EC50 on S1P1 [1] turned out to be 1780 nM. Also, the inhibition constant (Ki) on S1P1 [2] was 652 nM.

Take `COc1ccccc1-c1noc(-c2ccc(N3CCCCC3)cc2)n1` [Compound I4, 1-{4-[3-(2-methoxyphenyl)-1,2,4-oxadiazol-5-yl]phenyl}piperidine]: the EC50 on S1P1 [1] was found to be 3600 nM. Further, the Ki at S1P1 [2] was found to be 1070 nM.

On to `CC1CCCCN1c1ccc(-c2nc(-c3ccccc3OC(F)(F)F)no2)cc1[N+](=O)[O-]` (centres unmarked) [Compound I8, 2-methyl-1-(2-nitro-4-{3-[2-(trifluoromethoxy)phenyl]-1,2,4-oxadiazol-5-yl}phenyl)piperidine], for which the results for the concentration giving a half-maximal response (EC50) at S1P1 [1] and on S1P3 were 18 nM and > 30000 nM, respectively.

In the case of `COc1ccccc1-c1noc(-c2ccc(N3CCCCC3C)c([N+](=O)[O-])c2)n1` (centres unmarked) [Compound I9, 1-{4-[3-(2-methoxyphenyl)-1,2,4-oxadiazol-5-yl]-2-nitrophenyl}-2-methylpiperidine], the half-maximal effective concentration (EC50) on S1P1 [1] amounted to 7 nM; on S1P3, 5410 nM.

With `CCOc1ccccc1-c1noc(-c2ccc(N3CCCCC3C)c([N+](=O)[O-])c2)n1` (centres unmarked) [Compound I10, 1-{4-[3-(2-ethoxyphenyl)-1,2,4-oxadiazol-5-yl]-2-nitrophenyl}-2-methylpiperidine], the concentration for a half-maximal effect (EC50) is 24 nM on S1P1 [1] and > 30000 nM on S1P3.

On to `COc1ccccc1-c1noc(-c2ccc(N3CCCC(F)(F)C3)c([N+](=O)[O-])c2)n1` [Compound I12, 3,3-difluoro-1-{4-[3-(2-methoxyphenyl)-1,2,4-oxadiazol-5-yl]-2-nitrophenyl}piperidine], for which the EC50 at S1P1 [1] is 36 nM; at S1P3 it was > 30000 nM.

For `COc1ccccc1-c1noc(-c2ccc(N3CCOCC3)c(C(F)(F)F)c2)n1` [Compound I18, 4-[4-[3-(2-methoxyphenyl)-1,2,4-oxadiazol-5-yl]-2-(trifluoromethyl)phenyl]morpholine], the half-maximal effective concentration (EC50) at S1P1 [1] was 6 nM; at S1P3, > 30000 nM. At S1P1 [2], this compound showed an inhibition constant (Ki) of 7 nM.

Take `FC(F)(F)Oc1ccccc1-c1noc(-c2ccc(N3CCOCC3)c(C(F)(F)F)c2)n1` [Compound I19, 4-[4-{3-[2-(trifluoromethoxy)phenyl]-1,2,4-oxadiazol-5-yl}-2-(trifluoromethyl)phenyl]morpholine]: the EC50 at S1P1 [1] was 18 nM; on S1P3, > 30000 nM.

Take `COc1ccccc1-c1noc(-c2ccc(-c3ccccc3C)c(C)c2)n1` [Compound I20, 5-(2,2′-dimethylbiphenyl-4-yl)-3-(2-methoxyphenyl)-1,2,4-oxadiazole]: the EC50 on S1P1 [1] was determined as 44 nM; on S1P3 it was 3210 nM. Moreover, affinity at S1P1 [2] was put at a Ki of 16 nM.

In the case of `Cc1ccccc1-c1ccc(-c2nc(-c3ccccc3OC(F)(F)F)no2)cc1C` [Compound I21, 5-(2,2′-dimethylbiphenyl-4-yl)-3-[2-(trifluoromethoxy)phenyl]-1,2,4-oxadiazole], the EC50 on S1P1 [1] is 4 nM; at S1P3, > 30000 nM. For the same compound, the affinity at S1P1 [2], expressed as Ki, was 8 nM.

For `CCOc1ccccc1-c1noc(-c2ccc(-c3ccccc3C)c(C)c2)n1` [Compound I22, 5-(2,2′-dimethylbiphenyl-4-yl)-3-(2-ethoxyphenyl)-1,2,4-oxadiazole], the half-maximal effective concentration (EC50) is 51 nM at S1P1 [1] and > 30000 nM on S1P3.

For the compound `FC(F)(F)Oc1ccccc1-c1noc(-c2ccc(C3CCCCC3)cc2)n1` [Compound I29, 5-(4-cyclohexylphenyl)-3-[2-(trifluoromethoxy)phenyl]-1,2,4-oxadiazole], the EC50 on S1P1 [1] turned out to be 59 nM. Further, the Ki on S1P1 [2] stood at 25 nM.

Consider `COc1ccc(F)cc1-c1noc(-c2ccc(-c3ccccc3C)c(C)c2)n1` [Compound I33, 5-(2,2′-dimethylbiphenyl-4-yl)-3-(5-fluoro-2-methoxyphenyl)-1,2,4-oxadiazole], for which the EC50 at S1P1 [1] turned out to be 6 nM. Besides, on S1P1 [2], the inhibition constant (Ki) was determined as 43 nM.

`Cc1ccccc1-c1ccc(-c2nc(-c3ccccc3OC(F)(F)F)no2)cc1[N+](=O)[O-]` [Compound I36, 5-(2′-methyl-2-nitrobiphenyl-4-yl)-3-[2-(trifluoromethoxy)phenyl]-1,2,4-oxadiazole]: the EC50 at S1P1 [1] worked out at 10 nM; on S1P3, 2100 nM.

With `COc1ccccc1-c1ccc(-c2nc(-c3ccccc3OC(F)(F)F)no2)cc1C` [Compound I45, 5-(2′-methoxy-2-methylbiphenyl-4-yl)-3-[2-(trifluoromethoxy)phenyl]-1,2,4-oxadiazole], the EC50 on S1P1 [1] was 10 nM; on S1P3 it was > 20000 nM.

As for `COc1cc(-c2nc(-c3ccccc3OC(F)(F)F)no2)ccc1-c1ccccc1C` [Compound I53, 5-(2-methoxy-2′-methylbiphenyl-4-yl)-3-[2-(trifluoromethoxy)phenyl]-1,2,4-oxadiazole], the EC50 at S1P1 [1] is 14 nM; at S1P3 it was > 20000 nM.

Regarding `COc1cc(-c2nc(-c3ccccc3OC(F)(F)F)no2)ccc1-c1cscc1C` [Compound I54, 5-[3-methoxy-4-(4-methyl-3-thienyl)phenyl]-3-[2-(trifluoromethoxy)phenyl]-1,2,4-oxadiazole], the EC50 at S1P1 [1] was 13 nM; at S1P3 it was > 30000 nM.

In the case of `FC(F)(F)Oc1ccccc1-c1noc(-c2ccc(N3CCCCC3)c(C(F)(F)F)c2)n1` [Compound I61, 1-[4-{3-[2-(trifluoromethoxy)phenyl]-1,2,4-oxadiazol-5-yl}-2-(trifluoromethyl)phenyl]piperidine], the EC50 on S1P1 [1] came to 4 nM. Besides, the affinity at S1P1 [2] corresponds to a Ki of 54 nM.

Take `COc1ccccc1-c1noc(-c2ccc(-c3ccccc3C)c(C(F)(F)F)c2)n1` [Compound I62, 3-(2-methoxyphenyl)-5-[2′-methyl-2-(trifluoromethyl)biphenyl-4-yl]-1,2,4-oxadiazole]: the EC50 on S1P1 [1] turned out to be 4 nM. On S1P1 [2], the affinity, expressed as Ki, was 8 nM.

Turning to `COc1ccc(F)cc1-c1noc(-c2ccc(N3CCCCC3C)c(N)c2)n1` (centres unmarked) [Compound I69, 5-[3-(5-fluoro-2-methoxyphenyl)-1,2,4-oxadiazol-5-yl]-2-(2-methylpiperidin-1-yl)aniline], the EC50 on S1P1 [1] was 24 nM; on S1P3, 270 nM.

Regarding `Cc1cscc1-c1ccc(-c2nc(-c3ccccc3OC(F)(F)F)no2)cc1C(F)(F)F` [Compound I70, 5-[4-(4-methyl-3-thienyl)-3-(trifluoromethyl)phenyl]-3-[2-(trifluoromethoxy)phenyl]-1,2,4-oxadiazole], at S1P1 [1], the half-maximal effective concentration (EC50) is 2 nM. Moreover, at S1P1 [2], the inhibition constant Ki stood at 4 nM.

Regarding `COc1ccc(F)cc1-c1noc(-c2cnc(N3CCCCC3C)c(C)c2)n1` (centres unmarked) [Compound I74, 5-[3-(5-fluoro-2-methoxyphenyl)-1,2,4-oxadiazol-5-yl]-3-methyl-2-(2-methylpiperidin-1-yl)pyridine], the EC50 at S1P1 [1] is 5 nM. Moreover, the Ki on S1P1 [2] stood at 6 nM.
